# Assay results from patent US6919094B1, “Composition of medicine for treating headache disease and process of preparation and uses thereof” (priority 2000, dated 2005).
# Experiments:
# [1] = test system: spontaneous hypertension rat (SHR); assay: BP of the spontaneous hypertension rat; format: in vivo; conditions: 2 × 10-2 g/kg PO
# [2] = test system: Kunming mice; assay: mouse's spontaneous activity; format: in vivo; conditions: 5 × 10-2 g/kg PO
# Excerpt: Kunming mice weighing 18-22 g were chosen and divided into groups at random. Each group was made up of 10 mice.
# [3] = test system: female NIH mice; assay: mouse electrostimulation pain threshold; format: in vivo; conditions: 0.05 g/kg ip
# Excerpt: 2.3 The influence on the electrostimulation of mouse: The experiment method adopted was to simulate the mouse's vola with the electricity. Female NIH mice weighing 18-22 g were chosen and put on the conductive copper-wire plate of the YSD-4 multipurpose apparatus's zoopery box. The electricity was switched on and the time when the mouse […] chosen as the index of pain threshold. The sensitive mice whose pain thresholds were shorter than 15 s were chosen to do the experiment.
# [4] = test system: female NIH mice; assay: mouse's body-twisting method (ethanoic acid); format: in vivo; conditions: 0.10 g/kg ip, 0.8% ethanoic acid, 20 minutes
# Experimental: The experiment method was the mouse's body-twisting method. Female NIH mice weighing 18-22 g were divided into groups at random and each group had 10 mice. […] The number of the mice's body twisting in the following 20 minutes were recorded as the index.
# [5] = test system: rabbit platelet; assay: rabbit platelet aggregation induced by ADP (Born's method); format: cell-based; conditions: rabbit platelet-rich plasma, ADP 12 μM, 5th minute, 0.27 mg/ml
# Experimental: 1.1 The influence on the rabbit platelet's aggregative character: Rabbit platelet plasma was prepared according to the Csalay's method. Lucid rabbit's blood was collected by carotid arterial cannula, then the blood was mingled with 3.8% sodium citrate in proportion of 9:1 to anticoagulate. The mixture was centrifuged on the speed of 1000 rpm for 5 minutes then at the speed of 3000 rpm for 10 minutes. The blood plasma was separated into the platelet-rich plasma and the platelet-absent plasma. When conducting the measurement, the platelet aggregation percent was regulated to 50-60%. The platelet aggregation experiment was performed according to the Born's method by the PPP autobalance platelet-aggregation-machine (type SPA-3), keeping the concentrate of ADP(the aggregation inducer) at 12 μM, then collecting the data and comparing the aggregation percents between the treatment group and the control group at the 5th minute.
# [6] = test system: rat platelet; assay: rat platelet aggregation after gastric administration; format: in vivo; conditions: 2.7 × 10-2 g/kg PO, ADP 2.8 μM
# Experimental: 1.1 The influence on the rabbit platelet's aggregative character: Rabbit platelet plasma was prepared according to the […] method. […] The mixture was centrifuged on the speed of 1000 rpm for 5 minutes then at the speed of 3000 rpm for 10 minutes. The blood plasma was separated into the platelet-rich plasma and the platelet-absent plasma. […] 1.5 hour after the administration, the blood from the abdominal aorta was collected on the condition of anesthesia by ether. The platelet plasma was prepared by the same method mentioned above, and the PLT aggregation experiment performed by the same machine with a different ADP concentrate of 2.8 μM.
# [7] = test system: male Wistar rats; assay: rat's experimental thrombosis (extracorporeal circulation); format: in vivo; conditions: 0.05 g/kg iv
# Experimental: 1.3 The influence on the rat's experimental thrombosis: Male Wistar rats weighing 270-370 g were chosen to be anaesthetized by belly injection of sodium pentobarbital on the dosage of 50 mg/kg, then the rats were fixed at the supine position and the right common carotid artery and the left external jugular vein were detached. A polyvinyl pipe of 19.5 cm long with the inside diameter of 1.5 mm embedded in a 5.0 cm-long type 4 suture and filled with the solution of heparin and normal saline (25 μ/kg) was inserted into the right common carotid artery one end and the left external jugular vein the other end. […] 15 minutes later, the pipe was closed, the suture taken out and the greenweight measured.
# [8] = test system: female NIH mice; assay: mouse hot-plate method pain threshold; format: in vivo; conditions: 1.5 × 10-2 g/kg ip
# Experimental: 2.1 The influence on the mouse's reaction to the heat: The experiment referred to the mouse hot-plate method: female NIH mice weighing 18-22 g were put on the type CS501 ultra thermostat's metallic plate, on which the temperature was 55.0±0.5° C. The action of sucking the postpedes and jumping were concerned as the indexes to the pain caused by the heat and the shortest time when the mouse shown the indexes was defined as the pain threshold. The sensitive mice whose pain threshold were shorter than 30 s were chosen and divided into 4 groups according to their pain threshold, each group including 10 mice. […] If the threshold was beyond 60 s, it would be recorded as 60 s. […] The group on the dosage of 5.0 g/kg improved the pain threshold by 148.74% (p<0.001), and the effect lasted 5 hours.
# [9] = test system: SD white rats; assay: rat's tail-whipping method pain threshold; format: in vivo; conditions: 1.5 × 10-2 g/kg PO
# Experimental: 2.2 The influence on the rat's reaction to the heat. The experiment referred to the rat's tail-whipping method: SD white rats weighing 180-220 g were chosen and the distal ⅓ of their tails were dipped into hot water in which the temperature was regulated to 55.0±0.5° C. by the CS501 ultra thermostat. The tail's whipping out of the water was defined to be the index of pain. The rats were divided equably into 5 groups according to the pain threshold and each group had 9 rats. […] (p<0.05), 64.52% (P<0.05), the duration of effect was 1 h, 4 h.
structure (smiles),measurement,setting,value
C[C@H](CS)C(=O)N1CCC[C@H]1C(=O)O [Captopril],blood pressure,[1]; 1/2 week,113.5 ± 3.9
same,blood pressure,[1]; 1 week,138.2 ± 3.6
same,blood pressure,[1]; 2 week,142.3 ± 1.8
same,blood pressure,[1]; 3 week,140.0 ± 2.0
same,blood pressure,[1]; before administration,170.5 ± 2.9
COc1cc2c(cc1OC)[C@@H]1Cc3ccc(OC)c(OC)c3CN1CC2 [tetrahydropalmatine],Amount of spontaneous activity,[2],24.3 ± 4.3
Cc1c(N(C)C)c(=O)n(-c2ccccc2)n1C [aminopyrine],pain threshold in the electrostimulation experiment,[3]; after administration,21.3 ± 5.5 s
same,pain threshold in the electrostimulation experiment,[3]; before administration,4.8 ± 1.0 s
same,twist times,[4],2.8 ± 1.3
CC(=O)Oc1ccccc1C(=O)O [Aspirin],aggregation percent,[5],39.94 ± 2.05 %
same,platelet aggregation percent (max),[6],31.06 ± 3.80 %
same,greenweight of thrombus,[7],18.28 ± 1.28 mg
CN1CC[C@]23c4c5ccc(O)c4O[C@H]2[C@@H](O)C=C[C@H]3[C@H]1C5.Cl [Morphine hydrochloride],pain threshold (hot-plate method),"[8]; 1/2 h after administration, cut-off 60 s",>60 s
same,pain threshold (hot-plate method),"[8]; 1 h after administration, cut-off 60 s",>60 s
same,pain threshold (hot-plate method),"[8]; 3 h after administration, cut-off 60 s",>60 s
same,pain threshold (hot-plate method),"[8]; 5 h after administration, cut-off 60 s",>60 s
same,pain threshold (hot-plate method),[8]; before administration,22.5 ± 2.4 s
same,pain threshold (tail-whipping method),[9]; 1/2 h after administration,9.2 ± 0.8
same,pain threshold (tail-whipping method),[9]; 1 h after administration,5.7 ± 0.4
same,pain threshold (tail-whipping method),[9]; 2 h after administration,4.5 ± 0.4
same,pain threshold (tail-whipping method),[9]; 4 h after administration,3.3 ± 0.4
same,pain threshold (tail-whipping method),[9]; before administration,3.2 ± 0.3
